Measurements taken from patent publication US7534871B2, “Preparation and use of carbohydrate-based bicyclic ring structures with antimicrobial and cytostatic activity” (Kemin Pharma B.V.B.A., priority 2004, dated 2009).
Values after ≈ are worked out from the molar mass of the structure shown.

How the values were obtained:
[1] = tested on: HIV-2 (ROD); test: Anti-viral activity: HIV-2-induced cytopathicity in human CEM cell cultures; type: cell-based; conditions: Human immunodeficiency virus 2, CCRF-CEM; concentration required to inhibit HIV-induced cytopathicity in human CEM cell cultures by 50%
[2] = tested on: HSV-2 (G); test: Anti-viral activity: HSV-2-induced cytopathicity in human embryo fibroblast E6SM cell cultures; type: cell-based, herpes simplex virus (HSV); conditions: Human alphaherpesvirus 2, 50%
[3] = tested on: VV; test: microbe, parasite or virus in culture; type: cell-based; conditions: Orthopoxvirus vaccinia, E6SM, read-out: EC50 VV (E6SM)
[4] = tested on: VZV OKA; test: microbe, parasite or virus in culture; type: cell-based, varicella zoster virus (VZV); conditions: for EC50: Human alphaherpesvirus 3, HEL, read-out: EC50 VZV (HEL) OKA
[5] = tested on: human cervix carcinoma cells (HeLa); test: Cytostatic activity: inhibition of proliferation of HeLa cells; type: cell-based; conditions: 50% inhibitory concentration, cell proliferation
Experimental: (§1) The compounds were tested for anti-tumor activity via the inhibitory effects on the proliferation of murine leukemia cells (L1210/0), murine mammary carcinoma cells (FM3A), human T-lymphocyte cells (Molt4/C8, CEM/0) and human cervix carcinoma cells (HeLa).

[6] = tested on: P. aeruginosa ATCC27853 LMG16217; test: Anti-bacterial activity, Bioscreen C growth curve: P. aeruginosa; type: cell-based, Pseudomonas aeruginosa; conditions: for activity at 25 ppm: Pseudomonas aeruginosa, 35° C., 16 hours, negative control = 100, read-out: % of growth at 25 PPM compared to the negative control, P. aeruginosa ATCC27853 LMG16217
Experimental: (§2) For the determination of the anti-bacterial and anti-fungal activity the Bioscreen C Analyser Labsystems, Finland, was used. This is an automated reader-incubator. It measures growth continuously by vertical photometry (optical density), processes the data and provides a print out of the results. The area under the growth curve is automatically determined via the Biolink software.
(§3) The inoculum size of the bacteria is standardized to approximately 5×10^5 CFU/ml.
(§4) For bacteria, the 100-honey-well plates containing test chemical, Mueller-Hinton broth and inoculum (=sample) are incubated at 35° C. for 16 hours. Also wells without inoculum are incubated (=blanco). Yeasts are incubated 35° C. for 24 hours in RPMI 1640+MOPS buffer at 165 mM. Moulds also in RPMI 1640+MOPS buffer at 165 mM are incubated 25° C. for 5 days. All micro-organisms are screened against a known concentration of the reference antibiotics or antimycotics such as vancomycin, penicillin G, gentamicin or amphotericin B. The growth curve and the area under the growth curve can be determined using the Biolink software; this is illustrated in FIG. 1.
(§5) The area of the blanco is subtracted from the area of the sample, this number (delta) gives us an indication of the biological activity of the molecules tested and can be expressed as a % of growth at a specific dose compared to a negative control that has a value of 100, illustrated in FIG. 2. Screening of each dose of a specific compound is repeated 5 times. The dose used for all new molecules in all tests is 25 PPM or 25 μg/ml.
(§6) In Table 4 the results of the anti-bacterial activity is given for the new molecules. The micro-organisms used are Staphylococcus aureus, MRSA, VRE, Enterococcus faecalis, Salmonella typhimurium and Pseudomonas aeruginosa.

[7] = tested on: S. typhimurium ATTC700408; test: Anti-bacterial activity, Bioscreen C growth curve: S. typhimurium; type: cell-based; conditions: Salmonella enterica, LMG16217 / TYPHIMURIUM, 35° C., 16 hours, negative control = 100, read-out: % of growth at 25 PPM compared to the negative control, S. typhimurium ATTC700408 LMG16217
Experimental: as §2, §3, §4, §5, §6

[8] = tested on: HEL cells; test: Cytotoxicity: alteration of cell morphology (MCC); type: cell-based, human; conditions: minimum cytotoxic concentration that causes a microscopically detectable alteration of cell morphology
[9] = Cytotoxicity: inhibition of HEL cell growth (CC50); type: cell-based; conditions: human; concentration required to reduce cell growth by 50%; HEL cells, three days
Experimental: The medium was then replaced by MEM containing various concentrations of the test compound. After three days incubation at 37° C., when the cell monolayer was 70% confluent, the cell number was determined with the Coulter counter. The minimum cytotoxic concentration was defined as the concentration required to reduce cell growth by 50%.

[10] = tested on: CMV AD-169 strain; test: Anti-CMV activity: plaque reduction in HEL cells, AD-169 strain; type: cell-based, human cytomegalovirus (CMV); conditions: for IC50: Human betaherpesvirus 5, AD169, HEL, Table 2, reduce virus plaque formation by 50%, virus input 100 PFU, read-out: IC50 CMV AD-169 Strain
[11] = tested on: CMV Davis strain; test: Anti-CMV activity: plaque reduction in HEL cells, Davis strain; type: cell-based, human cytomegalovirus (CMV); conditions: Human betaherpesvirus 5, HEL; Table 2; reduce virus plaque formation by 50%; virus input 100 PFU; read-out: IC50 CMV David strain
[12] = tested on: L1210/0, FM3A, Molt4/C8, CEM/0 and HeLa cells; test: Cytostatic studies, conclusion over the panel of cell lines; type: cell-based, murine and human; conditions: conclusion in text on Table 3
Experimental: as §1

Row | SMILES | EC50 [1] [µg/mL] | EC50 [2] [µg/mL] | EC50 [3] [µg/mL] | EC50 [4] [µg/mL] | IC50 [5] [µg/mL] | activity at 25 ppm [6] [%] | activity at 25 ppm [7] [%] | Cytotoxicity Cell morphology (MCC) [8] [μg/ml] | CC50 at 3 days [9] [µg/mL] | anti-viral activity against VZV, in words ([4]; strain not named) | IC50 [10] [µg/mL] | anti-viral activity against CMV, in words ([10]; strain not named) | IC50 [11] [µg/mL] | anti-bacterial activity against P. aeruginosa, in words ([6]; conclusion on Table 4) | cytostatic activity, in words [12] | melting point [°C]
1 | CO[C@@H]1[C@@H](OC)[C@H](c2ccccc2)O[C@@H]2CO[C@@H](c3ccccc3)O[C@@H]12 [KPE00001015] | > 4 | > 80 | > 80 | 13 (≈ 36.5 µM) | 104 ± 65 (≈ 292 µM) | 90.4 | 87.2 | 50 | > 50 | – | – | – | – | – | – | –
2 | CO[C@@H]1[C@@H](OC)[C@H](Sc2ccccc2)O[C@@H]2COC(=O)CCCC/C=C/CCCCC(=O)O[C@@H]12 [KPE00001016.1] | > 4 | > 3.2 | > 3.2 | 5 (≈ 10.1 µM) | 19 ± 5 (≈ 38.6 µM) | 29 | 76.4 | – | – | especially active | 10 (≈ 20.3 µM) | especially active | 10 (≈ 20.3 µM) | good anti-bacterial activity | good cytostatic activity | 60 to 61
3 | CO[C@@H]1[C@@H](OC)[C@H](Sc2ccccc2)O[C@@H]2COC(=O)CCCC/C=C\CCCCC(=O)O[C@@H]12 [KPE00001016.2] | > 100 | > 3.2 | > 3.2 | > 50 | 169 ± 44 (≈ 343 µM) | 79.8 | 87 | – | – | – | > 20 | – | > 20 | – | – | 87 to 88
4 | CO[C@@H]1[C@@H](OC)[C@H](Cc2ccccc2)O[C@@H]2CO[C@@H](c3ccccc3)O[C@@H]12 [KPE00001019] | > 100 | > 80 | > 80 | > 5 | > 200 | 105 | 94.3 | 20 | > 50 | – | – | – | – | – | – | –
5 | CO[C@@H]1[C@@H](OC)[C@H](Cc2ccccc2)O[C@@H]2COC(=O)CC/C=C/CCC(=O)O[C@@H]12 [KPE00001022] | > 20 | 80 (≈ 191 µM) | 80 (≈ 191 µM) | > 20 | ~167 (≈ 399 µM) | 90.9 | 94 | – | – | – | > 5 | – | – | – | good cytostatic activity | –
6 | CO[C@@H]1[C@@H](OC)[C@H](Cc2ccccc2)O[C@@H]2COC(=O)CCCCCCCCC=CCCCCCCCCC(=O)O[C@@H]12 [KPE00001031E] | > 20 | > 400 | > 400 | > 5 | > 200 | 89.6 | 91.7 | – | – | – | > 5 | – | – | – | – | 45 to 46
